Test results as given in US11992500B2, “Use of methylation inhibitors for the treatment of autoimmune diseases” (Rush University Medical Center, priority 2018, dated 2024).
Entries after “also recorded” stand apart in the source; their conditions may differ.

Experiments:
A20 cells [1] = assay: Gene expression (qRT-PCR) in A20 cells cultured with epigenetic enzyme inhibitors; type: cell-based, mouse; details: for AhR gene expression / Arnt gene expression: AzaC 2, 5, 10 μM, SAHA 0.1, 0.5, 1.0 μM, GSK126 5, 10, 15 μM, FIG. 6
[2] = tested on: proteoglycan-induced arthritis (PGIA); assay: Therapeutic AzaC treatment of established PGIA; type: in vivo, BALB/c mice; details: AzaC i.p. every other day after first symptoms (score ≥2), 2 mg/kg
Method: (§1) Mice: Retired breeder female BALB/c mice were purchased from the National Cancer Institute (NCI) and were used for the generation of cartilage proteoglycan-induced arthritis (PGIA). Briefly, the mice were immunized with PG purified from knee joint cartilage osteoarthritis patients who had undergone joint replacement surgery. PG was injected intraperitoneally (IP) 3 times (at 3-week intervals, 100 μg PG core protein/injection) with 2 mg of dimethyl-dioctadecyl-ammonium bromide adjuvant into BALB/c mice. Mice with acute arthritis were sacrificed 9 days after the 3rd PG immunization. Animal experiments were approved by the Institutional Animal Care and Use Committee at Rush University Medical Center, Chicago, Ill. […] Additional characteristics of RA are also present in other rodent models, but the above listed phenotypes and genotypes are present together only in PGIA.
In the therapeutic AzaC treatment group, arthritic mice were i.p. injected with either AzaC or vehicle on every other day following the first symptoms of arthritis, when the visual arthritis score was at least ≥2 per animal (FIG. 3(B)).

A20 cells [3] = assay: Western blot of subcellular fractions of AzaC treated A20 cells; type: cell-based, mouse
Method: Western blot analyses: AzaC treated A20 cells (10 μM AzaC for 72 hours) washed with PBS, nuclear and cytoplasmic extracts were prepared from 8×10^6 cells using Nuclei EZ Prep kit (Sigma-Aldrich) according to the manufacturer's protocol. Protein extracts were separated on a 4-10% SDS-polyacrylamide gel (Bio-Rad Laboratories) and blotted onto Immuno-Blot membrane (Bio-Rad Laboratories). Western blots were serially probed with anti-AhR, anti-Lamin-B1 and glyceraldehyde-3-phosphate dehydrogenase (GAPDH) (Santa Cruz Biotechnologies) antibodies. ECL Western Blotting Substrate (ThermoScientific) was used for detection.

[4] = tested on: B cells of mice with PGIA; assay: Molecular, cellular and histological analyses of AzaC-treated PGIA mice; type: in vivo, BALB/c mice
[5] = tested on: proteoglycan-induced arthritis (PGIA); assay: Prophylactic AzaC treatment of mice with PGIA; type: in vivo, BALB/c mice; details: prophylactic AzaC i.p. every other day from 10 days before expected onset
Method: as §1
First, the prophylactic effect of AzaC on arthritis development in mice with PGIA was investigated. AzaC treatment was started 10 days before the expected PGIA onset (on day 40 of the immunization) and was administered intraperitoneally (i.p.) every other day. The control group received saline solution (FIG. 3(A)). […] Female BALB/c mice were immunized 3 times with PG. Limbs were inspected regularly after the third PG injection for signs of arthritis, and a visual arthritis score was assigned to all paws. […]

A20 cells [6] = assay: Gene expression (qRT-PCR) in A20 cells cultured with epigenetic enzyme inhibitors; type: cell-based, mouse
Method: Cell cultures: A20 mouse B cell line were purchased from American Type Culture Collection (ATCC) and were maintained at 37° C. in a 5% CO2-humidified atmosphere on Dulbecco's modified Eagle's medium (DMEM) containing 10% fetal bovine serum (FBS) and […] each of penicillin and streptomycin. Human B cell line GM12878 were purchased from ATCC and cultured in RPMI 1640 media and maintained at 37° C. in a 5% CO2-humidified incubator as described above.
Azacitidine (AzaC) treatment of A20 cells: […] were seeded into 6-well plates containing 3 ml cell culture medium. Before AzaC treatment, cells were incubated for 16-18 hours at 37° C. in 5% CO2. Cells were treated with AzaC to a final concentration of 5, 10 and […], control cells were treated with 0.15% DMSO. Cells were incubated for 48, 72 and 96 hours under standard cell culture conditions. After 48 and 72 hours AzaC was replenished to keep the desired AzaC concentration. Harvested cells were washed with phosphate buffered saline (PBS) and viability and cell numbers were assessed on Vi-cell XR cell counter (Beckmann Counter).
(§2) RNA isolation, cDNA synthesis, and quantitative reverse transcription-polymerase chain reaction (qRT-PCR): Total RNA from cell culture was isolated using QIAmp RNA Blood Kit (Qiagen) or Direct-Zol™ RNA miniprep Kit (Zymo Research). Each RNA sample was digested with 4U of TurboDNase™ (Ambion) and purified with RNA clean and concentrator-5 (Zymo Research) and samples quantified using NanoDrop 1000 spectrophotometer. Primary mouse cells were collected from the spleens, on day 9 after the third PG injection. B cells were purified using antibody-coated magnetic beads (StemCell Technologies). RNA was isolated from purified mouse lymphocytes using a TRI reagent (Sigma-Aldrich) immediately after separation.
Human peripheral blood mononuclear cells (PBMCs) were separated on a Ficoll gradient from blood samples obtained from consenting, healthy individuals and from RA patients naive to treatment with disease-modifying antirheumatic drugs (DMARDs). The isolated mononuclear cells were stored in RNAlater (Life Technologies) until RNA preparation. Complementary DNA was reverse transcribed from 1 μg total RNA with iScript™ Reverse Transcription Supermix (Bio-Rad Laboratories). Quantitative RT-PCR (CFX Connect™, Bio-Rad Laboratories) was performed in triplicate using SsoAdvanced™ Universal SYBR Green Supermix (Bio-Rad Laboratories) in 10 μl. Quantitative RT-PCR was performed using CFX machine (Bio-Rad). Primers were designed using PrimerQuest software and were manufactured by Integrated DNA Technologies. The qRT-PCR primer sequences are available upon request from the corresponding author. The specificity of the qRT-PCR product was monitored by a post-PCR melting curve analysis. Samples were tested in duplicate, and the CFX manager software was used to calculate the normalized fold expression changes based on the ΔΔCt method. Measured Ct values were normalized to β-actin internal control values.

[7] = tested on: ex vivo-cultured arthritic B cells; assay: Ahr expression (RT-qPCR) in ex vivo-cultured arthritic B cells; type: cell-based, mouse; details: 20 μM AzaC, FIG. 1(J)
Source text: Primary mouse cells were collected from the spleens, on day 9 after the third PG injection. B cells were purified using antibody-coated magnetic beads (StemCell Technologies). RNA was isolated from purified mouse lymphocytes using a TRI reagent (Sigma-Aldrich) immediately after separation.

[8] = tested on: B cells of mice with PGIA; assay: Molecular, cellular and histological analyses of AzaC-treated PGIA mice; type: in vivo, BALB/c mice; remark: listed apart in the source
Source text: as §2
Genomic DNA (gDNA) purification, Global DNA methylation assessment and Methylated CpG island ecovery assay (MIRA)-assisted microarray (MIRA-chip) and data analysis: gDNA was isolated from affinity purified B cells using QIAamp DNA Mini Kit (Qiagen). Global DNA methylation analysis was performed using Imprint Methylated DNA Quantification kit (Sigma-Aldrich). Experiments were conducted according to manufacturer instructions MIRA enrichment of methylated gDNA fractions were performed by MethylCollector™ Ultra kit (Active Motif), captured fractions were labeled and hybridized to microarrays harboring all mouse promoters and CpG island outside of the promoter regions (NimbleGene). Data analysis was performed as described before.
In another embodiment, the effect of AzaC treatment on germinal center (GC) formation in animals was investigated. Germinal center formation was examined in control (DDA adjuvant-injected and arthritic non-treated) and arthritic AzaC-treated mice (FIG. 4(C-D)). […] Joint-draining lymph nodes (FIG. 4(C)) and spleens (FIG. 4(D)). DDA-injected (adjuvant control), vehicle-treated mice with PGIA and AzaC-treated mice with PGIA. Green-GL7 (activated B and T cell marker), Red-CD45/B220 (B cells), Blue-CD4 & CD8a (T cells). Arrows point to GCs. GC %-percentage of GC-containing follicles observed in the investigated lymph nodes and spleens (n=36 follicles from LNs, n=106 follicles from spleens). Green sidebars-percentage of GC carrying follicles. Red sidebars are follicles without GC.

[9] = cancer patients, effective dose; cited from earlier work
Ezh2 = Ezh2 (Homo sapiens, UniProt Q15910); details: cited from earlier work
[10] = AzaC 48 hours, plasmid not expressing Ahr-specific shRNA
[11] = B cells of AzaC-treated PGIA mice, RT-qPCR

Ezh2, sequence (Q15910 whole entry, species assumed): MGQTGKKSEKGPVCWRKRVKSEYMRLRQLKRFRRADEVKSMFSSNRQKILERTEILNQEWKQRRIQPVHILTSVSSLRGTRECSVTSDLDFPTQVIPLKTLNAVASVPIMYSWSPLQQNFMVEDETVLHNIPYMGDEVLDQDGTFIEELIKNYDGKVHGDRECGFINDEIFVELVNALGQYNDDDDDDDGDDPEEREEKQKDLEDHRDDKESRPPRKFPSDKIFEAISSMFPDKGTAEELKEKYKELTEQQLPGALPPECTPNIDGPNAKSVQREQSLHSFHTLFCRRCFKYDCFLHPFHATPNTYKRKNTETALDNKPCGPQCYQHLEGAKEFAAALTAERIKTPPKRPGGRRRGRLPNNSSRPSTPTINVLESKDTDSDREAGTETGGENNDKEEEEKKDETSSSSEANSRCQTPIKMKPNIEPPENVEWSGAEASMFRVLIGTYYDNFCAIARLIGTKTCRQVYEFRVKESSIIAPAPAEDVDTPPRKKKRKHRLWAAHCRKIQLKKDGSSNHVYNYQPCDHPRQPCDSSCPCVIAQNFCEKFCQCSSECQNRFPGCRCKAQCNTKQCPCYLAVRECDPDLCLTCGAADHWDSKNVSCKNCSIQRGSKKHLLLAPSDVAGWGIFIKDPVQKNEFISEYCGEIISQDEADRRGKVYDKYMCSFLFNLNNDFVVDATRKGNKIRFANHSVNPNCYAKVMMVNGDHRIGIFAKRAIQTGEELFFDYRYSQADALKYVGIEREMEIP
Ezh2, sequence (O75530 whole entry partner, species assumed): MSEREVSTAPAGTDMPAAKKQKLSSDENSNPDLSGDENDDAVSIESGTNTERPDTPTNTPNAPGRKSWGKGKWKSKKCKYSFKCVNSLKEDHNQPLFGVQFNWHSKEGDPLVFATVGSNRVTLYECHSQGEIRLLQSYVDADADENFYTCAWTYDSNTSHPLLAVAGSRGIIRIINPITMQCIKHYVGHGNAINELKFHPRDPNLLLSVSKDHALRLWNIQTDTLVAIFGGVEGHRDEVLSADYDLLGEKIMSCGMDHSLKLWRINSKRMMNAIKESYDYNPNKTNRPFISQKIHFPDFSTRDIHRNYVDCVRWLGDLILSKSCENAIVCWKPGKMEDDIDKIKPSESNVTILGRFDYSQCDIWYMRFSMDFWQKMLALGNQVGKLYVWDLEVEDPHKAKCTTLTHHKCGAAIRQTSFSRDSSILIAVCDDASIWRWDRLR
Ezh2, sequence (Q15022 whole entry partner, species assumed): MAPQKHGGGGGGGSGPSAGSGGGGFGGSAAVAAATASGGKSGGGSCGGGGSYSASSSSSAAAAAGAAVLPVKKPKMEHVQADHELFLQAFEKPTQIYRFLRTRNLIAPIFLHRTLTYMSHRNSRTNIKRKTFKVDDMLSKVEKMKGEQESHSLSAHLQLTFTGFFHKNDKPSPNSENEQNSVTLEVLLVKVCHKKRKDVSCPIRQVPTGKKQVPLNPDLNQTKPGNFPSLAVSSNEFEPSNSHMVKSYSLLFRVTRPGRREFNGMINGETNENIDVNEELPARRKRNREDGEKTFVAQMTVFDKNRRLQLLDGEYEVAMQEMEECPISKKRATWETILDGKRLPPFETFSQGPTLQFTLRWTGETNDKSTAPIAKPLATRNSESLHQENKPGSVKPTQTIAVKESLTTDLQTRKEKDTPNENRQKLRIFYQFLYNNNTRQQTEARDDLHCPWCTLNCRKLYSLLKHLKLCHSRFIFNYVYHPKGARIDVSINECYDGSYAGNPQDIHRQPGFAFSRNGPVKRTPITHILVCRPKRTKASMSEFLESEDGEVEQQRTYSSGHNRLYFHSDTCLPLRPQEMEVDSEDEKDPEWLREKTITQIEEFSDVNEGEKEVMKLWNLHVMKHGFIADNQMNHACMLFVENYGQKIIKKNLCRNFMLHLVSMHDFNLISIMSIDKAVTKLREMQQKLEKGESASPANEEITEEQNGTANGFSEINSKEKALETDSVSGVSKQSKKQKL
Ezh2, sequence (Q09028 whole entry partner, species assumed): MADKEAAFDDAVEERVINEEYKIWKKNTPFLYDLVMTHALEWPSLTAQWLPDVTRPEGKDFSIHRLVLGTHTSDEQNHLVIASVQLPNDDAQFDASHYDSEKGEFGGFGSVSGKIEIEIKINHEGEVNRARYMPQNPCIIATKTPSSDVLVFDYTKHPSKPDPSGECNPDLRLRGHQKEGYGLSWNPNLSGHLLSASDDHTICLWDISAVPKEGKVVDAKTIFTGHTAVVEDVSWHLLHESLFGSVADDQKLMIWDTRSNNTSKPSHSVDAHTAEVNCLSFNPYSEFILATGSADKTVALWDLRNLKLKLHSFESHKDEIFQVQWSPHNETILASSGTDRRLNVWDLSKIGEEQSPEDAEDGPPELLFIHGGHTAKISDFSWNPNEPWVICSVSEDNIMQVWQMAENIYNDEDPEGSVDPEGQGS

SMILES: Nc1ncn([C@@H]2O[C@H](CO)[C@@H](O)[C@H]2O)c(=O)n1 [AzaC, 4-Amino-1-(β-D-ribofuranosyl)-1,3,5-triazin-2(1H)-one]
- Ahr expression, time course (A20 cells [1]; 10 μM AzaC, 24, 48 and 72 hours): could be reactivated; also recorded: increased Ahr expression; also recorded: significantly increased; also recorded: releases Ahr from DNA methylation-mediated silencing
- AhR gene expression (A20 cells [1]; 72 hours): significant reactivation
- Arnt gene expression (A20 cells [1]; 72 hours): could not trigger significant upregulation
- Aicda expression (A20 cells [1]; extended exposure to AzaC (24-72 hours)): significantly downregulated; also recorded: reduces Aicda expression; also recorded: downregulated expression
- Swelling and progression of established PGIA [2]: significantly reduce swelling and halt the progression of PGIA; also recorded: very effective; also recorded: no detectable signs of PGIA after the second AzaC injection; also recorded: halted the progression of PGIA; also recorded: clinical symptoms of RA were abolished
- Translocation of AhR into nuclei (A20 cells [3]; 10 μM AzaC for 72 hours, Western blot): translocation of the translated product into A20 nuclei; also recorded: AhR translocated into the nucleus without adding specific agonist
- Aicda protein level in cytoplasmic fraction (A20 cells [3]; Western blot, FIG. 2(E)): downregulation could be also observed at protein level; also recorded: reduces Aicda level
- AhR protein level (A20 cells [3]; Western blotting): elevated AhR protein level was not detected
- Histology of ankle joints ([4]; AzaC-treated arthritic versus naive (non-immunized) ankles): no detectable histological differences
- Immature B cell number ([4]; bone marrow, flow cytometry): significant decrease
- Plasma cell number ([4]; bone marrow, flow cytometry): reduced, but statistically not significant alteration
- Autoantibody titer (human PG-specific IgG1, ELISA) ([4]; sera of AzaC-treated PGIA mice): diminish autoantibody production; also recorded: significantly reduced
- Splenic marginal zone (MZ) and follicular B cell populations ([4]; spleen, flow cytometry): no significant change
- Development of PGIA (signs of disease) [5]: No sign of the disease was observed; also recorded: prevents the development of arthritis; also recorded: prevents PGIA development
- Expression of tentative AhR target genes (cytokine genes) (A20 cells [6]; 10 μM AzaC for 72 hours, FIG. 5(C)): could significantly alter the expression of three tentative AhR target genes
- Aicda expression with Ahr-specific shRNA (A20 cells [6]; AzaC 48 hours plus Ahr-specific shRNA-expressing construct): reversed
- Ahr expression, control plasmid (A20 cells [6]; [10]): significantly increased
- Aicda expression, control plasmid (A20 cells [6]; [10]): downregulated
- AhR gene expression (A20 cells [6]; AzaC in various concentrations (5, 10, 15 μM), followed for three days, FIG. 1(L)): could revive AhR expression after two days
- Cyp1a1 gene expression (A20 cells [6]; AzaC treatment): elevated expression of Cyp1a1 gene
- Arnt expression (A20 cells [6]; AzaC treatment, FIG. 1(M), FIG. 2(A)): increased; also recorded: reactivated; also recorded: just prolonged and high concentration AzaC treatment could have released it from the silent state
- RelB expression (A20 cells [6]; AzaC treatment, FIG. 2(B)): increased
- Ahr expression [7]: restored
- Ahr expression in vivo [8, 11]: restore Ahr expression in vivo; also recorded: increased Ahr expression; also recorded: sufficient for releasing Ahr expression from DNA methylation-mediated blockage; also recorded: reactivated
- Aicda expression in vivo [8, 11]: markedly inhibited; also recorded: downregulation of Aicda expression
- DNA methylation level of Ahr promoter (MIRA) ([8]; B cells of AzaC-treated arthritic mice): erased arthritis-associated DNA hypermethylation; also recorded: reduced
- Germinal center (GC) formation ([8]; spleen and draining lymph nodes): seriously impaired GC development and reduced GC number; also recorded: diminished; also recorded: impaired GC formation
- Post-recombinant IgG1 transcript level (class switch recombination) ([8]; splenic B cells of AzaC-treated PGIA mice, qRT-PCR): significantly decreased
- Adverse drug events / side effects [9]: triggers cytotoxicity and induces nausea, vomiting, fevers, diarrhea, rigors and many other side effects; also recorded: induces severe adverse drug events (ADEs)

SMILES: CC[C@H](C)n1cc(C)c2c(C(=O)NCc3c(C)cc(C)[nH]c3=O)cc(-c3ccc(N4CCNCC4)nc3)cc21 [GSK126, N-[(1,2-dihydro-4,6-dimethyl-2-oxo-3-pyridinyl)methyl]-3-methyl-1-[(1S)-1-methylpropyl]-6-[6-(1-piperazinyl)-3-pyridinyl]-1H-indole-4-carboxamide]
- AhR gene expression (A20 cells [1]; 72 hours): promoted the expression
- Arnt gene expression (A20 cells [1]; 72 hours): statistically significant upregulation

SMILES: CCCc1cc(C)[nH]c(=O)c1CNC(=O)c1cc(-c2ccnc(N3CCN(C)CC3)c2)cc2c1cnn2C(C)C [GSK343, N-[(1,2-dihydro-6-methyl-2-oxo-4-propyl-3-pyridinyl)methyl]-1-(1-methylethyl)-6-[2-(4-methyl-1-piperazinyl)-4-pyridinyl]-1H-indazole-4-carboxamide]
- Ki (affinity to Ezh2) (Ezh2): low nM range

SMILES: O=C(CCCCCCC(=O)Nc1ccccc1)NO [SAHA, suberanilohydroxamic acid]
- Cytotoxicity (A20 cells [1]; 72 hours): without high cytotoxicity
- AhR gene expression (A20 cells [1]; 72 hours): could increase the gene expression
- Arnt gene expression (A20 cells [1]; 72 hours): could increase the gene expression
